Data from ChEMBL document CHEMBL1152560, “Substituted 2-arylbenzothiazoles as kinase inhibitors: hit-to-lead optimization” (Bioorg Med Chem, 2009).

Key:
[1] = molecular target: T1, cGMP-dependent protein kinase 1 (Homo sapiens) (UniProt Q13976); experiment: Residual activity of PRKG1 at 1 uM by microplate scintillation counting
T1 sequence (whole entry): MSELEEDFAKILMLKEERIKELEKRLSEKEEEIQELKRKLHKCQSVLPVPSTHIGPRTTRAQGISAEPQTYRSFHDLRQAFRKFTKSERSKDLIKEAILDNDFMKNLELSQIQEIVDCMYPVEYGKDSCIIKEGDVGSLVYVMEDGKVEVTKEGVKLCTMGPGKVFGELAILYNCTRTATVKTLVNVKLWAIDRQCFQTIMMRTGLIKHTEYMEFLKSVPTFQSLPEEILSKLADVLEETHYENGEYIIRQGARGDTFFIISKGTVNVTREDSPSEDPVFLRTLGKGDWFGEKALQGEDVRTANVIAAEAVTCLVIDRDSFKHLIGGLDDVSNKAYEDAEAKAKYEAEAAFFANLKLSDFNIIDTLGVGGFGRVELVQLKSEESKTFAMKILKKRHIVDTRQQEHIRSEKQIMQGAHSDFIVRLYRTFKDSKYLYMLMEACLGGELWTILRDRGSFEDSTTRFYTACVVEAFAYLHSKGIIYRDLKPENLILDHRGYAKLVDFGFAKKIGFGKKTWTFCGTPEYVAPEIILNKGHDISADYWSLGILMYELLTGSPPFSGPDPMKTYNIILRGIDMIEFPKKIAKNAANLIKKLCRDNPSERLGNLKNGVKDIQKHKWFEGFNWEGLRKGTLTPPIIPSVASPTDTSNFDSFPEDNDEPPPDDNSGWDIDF

[2] = molecular target: T2, Interleukin-1 receptor-associated kinase 4 (Homo sapiens) (UniProt Q9NWZ3); experiment: Residual activity of IRAK4 at 1 uM by microplate scintillation counting
T2 sequence (whole entry): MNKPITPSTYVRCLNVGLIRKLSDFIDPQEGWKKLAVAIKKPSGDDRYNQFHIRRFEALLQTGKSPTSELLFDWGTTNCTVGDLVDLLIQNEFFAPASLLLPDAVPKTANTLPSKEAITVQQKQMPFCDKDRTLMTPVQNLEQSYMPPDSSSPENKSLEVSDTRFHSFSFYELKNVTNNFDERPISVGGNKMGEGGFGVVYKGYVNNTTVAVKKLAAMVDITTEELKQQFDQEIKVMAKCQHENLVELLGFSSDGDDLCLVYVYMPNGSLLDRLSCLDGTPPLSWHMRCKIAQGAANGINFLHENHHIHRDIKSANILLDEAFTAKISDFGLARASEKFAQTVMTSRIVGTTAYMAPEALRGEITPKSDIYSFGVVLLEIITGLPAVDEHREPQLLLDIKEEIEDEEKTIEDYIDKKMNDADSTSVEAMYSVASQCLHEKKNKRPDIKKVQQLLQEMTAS

[3] = molecular target: Proto-oncogene tyrosine-protein kinase Src (Homo sapiens) (UniProt P12931); experiment: Residual activity of SRC at 1 uM by microplate scintillation counting
[4] = molecular target: Cyclin-dependent kinase 1/cyclin B1 (Homo sapiens) (UniProt P06493+P14635); experiment: Residual activity of CDK1/CyclinB1 at 10 uM by microplate scintillation counting; type: protein-complex assay
[5] = molecular target: T3, Protein kinase C epsilon type (Homo sapiens) (UniProt Q02156); experiment: Residual activity of PKCepsilon at 1 uM by microplate scintillation counting
T3 sequence (whole entry): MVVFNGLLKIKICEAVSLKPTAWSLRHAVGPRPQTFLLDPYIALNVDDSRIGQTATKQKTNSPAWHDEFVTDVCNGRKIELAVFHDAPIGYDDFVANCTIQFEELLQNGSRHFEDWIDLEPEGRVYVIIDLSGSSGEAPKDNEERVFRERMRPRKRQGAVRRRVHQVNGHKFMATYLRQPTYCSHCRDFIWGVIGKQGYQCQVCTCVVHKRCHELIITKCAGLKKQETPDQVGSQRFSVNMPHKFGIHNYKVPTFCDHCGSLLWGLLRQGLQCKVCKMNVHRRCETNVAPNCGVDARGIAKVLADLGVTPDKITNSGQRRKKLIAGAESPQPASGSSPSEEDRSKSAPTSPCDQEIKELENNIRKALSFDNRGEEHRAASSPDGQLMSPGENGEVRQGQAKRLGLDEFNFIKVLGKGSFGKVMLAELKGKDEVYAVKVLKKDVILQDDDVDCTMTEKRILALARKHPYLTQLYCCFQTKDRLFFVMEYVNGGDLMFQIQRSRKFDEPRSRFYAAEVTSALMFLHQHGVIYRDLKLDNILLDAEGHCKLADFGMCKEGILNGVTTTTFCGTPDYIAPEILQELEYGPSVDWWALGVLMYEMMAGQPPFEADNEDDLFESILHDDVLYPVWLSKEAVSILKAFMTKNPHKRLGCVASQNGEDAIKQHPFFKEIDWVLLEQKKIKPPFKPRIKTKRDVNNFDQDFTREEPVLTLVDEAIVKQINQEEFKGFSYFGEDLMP

[6] = molecular target: Calcium/calmodulin-dependent protein kinase type 1D (Homo sapiens) (UniProt Q8IU85); experiment: Residual activity of CAMK1D at 0.1 uM by microplate scintillation counting
Sequence of Calcium/calmodulin-dependent protein kinase type 1D (Homo sapiens) (Q8IU85 whole entry, looked up): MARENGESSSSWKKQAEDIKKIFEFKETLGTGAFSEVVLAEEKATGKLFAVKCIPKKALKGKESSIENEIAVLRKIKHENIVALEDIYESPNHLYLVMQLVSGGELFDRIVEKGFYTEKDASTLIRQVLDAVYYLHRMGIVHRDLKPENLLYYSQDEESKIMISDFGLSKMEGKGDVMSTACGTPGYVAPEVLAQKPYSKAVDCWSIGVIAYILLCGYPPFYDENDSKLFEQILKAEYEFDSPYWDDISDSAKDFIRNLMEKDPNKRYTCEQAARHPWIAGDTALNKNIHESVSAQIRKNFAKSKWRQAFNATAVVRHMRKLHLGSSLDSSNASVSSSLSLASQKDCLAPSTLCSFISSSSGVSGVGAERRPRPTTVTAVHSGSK

Sequence of Cyclin-dependent kinase 1/cyclin B1 (Homo sapiens) (P06493 whole entry, looked up): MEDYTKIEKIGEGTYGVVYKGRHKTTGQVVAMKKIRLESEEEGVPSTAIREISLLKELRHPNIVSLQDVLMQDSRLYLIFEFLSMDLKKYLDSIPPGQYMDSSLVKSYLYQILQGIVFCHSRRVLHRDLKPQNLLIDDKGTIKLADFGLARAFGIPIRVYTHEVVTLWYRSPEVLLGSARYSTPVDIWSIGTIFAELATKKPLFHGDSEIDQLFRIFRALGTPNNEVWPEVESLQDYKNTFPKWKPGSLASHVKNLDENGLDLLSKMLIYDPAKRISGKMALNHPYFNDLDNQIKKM
Sequence of Cyclin-dependent kinase 1/cyclin B1 (Homo sapiens) (P14635 whole entry, looked up): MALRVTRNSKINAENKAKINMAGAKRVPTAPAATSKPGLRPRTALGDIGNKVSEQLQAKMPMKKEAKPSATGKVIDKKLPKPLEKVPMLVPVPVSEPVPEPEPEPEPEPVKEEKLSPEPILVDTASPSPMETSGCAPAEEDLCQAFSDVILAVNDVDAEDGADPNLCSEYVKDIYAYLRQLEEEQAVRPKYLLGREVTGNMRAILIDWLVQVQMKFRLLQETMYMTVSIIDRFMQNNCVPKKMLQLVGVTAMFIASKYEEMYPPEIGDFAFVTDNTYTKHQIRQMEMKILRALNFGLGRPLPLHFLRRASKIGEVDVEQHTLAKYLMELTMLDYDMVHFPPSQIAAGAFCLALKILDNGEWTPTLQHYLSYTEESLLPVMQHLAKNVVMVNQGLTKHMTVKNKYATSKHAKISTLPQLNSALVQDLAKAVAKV
Sequence of Proto-oncogene tyrosine-protein kinase Src (Homo sapiens) (P12931 2-536 limits assumed): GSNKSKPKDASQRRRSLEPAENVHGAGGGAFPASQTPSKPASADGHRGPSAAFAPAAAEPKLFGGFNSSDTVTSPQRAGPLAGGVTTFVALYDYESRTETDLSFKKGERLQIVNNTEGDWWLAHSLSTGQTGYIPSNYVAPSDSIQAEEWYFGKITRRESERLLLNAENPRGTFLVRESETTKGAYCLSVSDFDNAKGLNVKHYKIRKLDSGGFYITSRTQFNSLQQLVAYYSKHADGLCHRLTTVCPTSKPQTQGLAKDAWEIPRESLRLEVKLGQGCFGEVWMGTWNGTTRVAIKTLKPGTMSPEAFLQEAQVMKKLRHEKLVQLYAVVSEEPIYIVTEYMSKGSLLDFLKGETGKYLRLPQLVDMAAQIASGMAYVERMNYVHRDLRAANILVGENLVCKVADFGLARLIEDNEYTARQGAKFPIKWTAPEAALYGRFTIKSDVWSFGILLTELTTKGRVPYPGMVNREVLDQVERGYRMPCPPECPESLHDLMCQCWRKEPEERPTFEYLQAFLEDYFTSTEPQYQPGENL

Row | residual activity [1] | residual activity [2] | residual activity [3] | residual activity [4] | residual activity [5] | residual activity [6] | Structure (SMILES)
1 | 101% | 90% | 95% | 96% | 80% | 101% | COc1cc2c(Oc3ccc(-c4nc5ccccc5s4)cc3)ncnc2cc1OCCCN1CCCC1
2 | 87% | 91% | 87% | 111% | 94% | 88% | COc1cc2c(Oc3ccc(-c4nc5ccccc5s4)cc3)ncnc2cc1OCCCN1CCN(C)CC1
3 | 97% | 97% | 89% | 100% | 90% | 104% | COc1cc2c(Oc3ccc(-c4nc5ccccc5s4)cc3F)ncnc2cc1OCCCN1CCN(C)CC1
